Data: patent US20060167109A1, “Methods of reducing rhinovirus contagion and related compositions” (priority 2002, published 2006)

Columns and labels:
Experiment in all cases: HRV cytopathic effect assay
Assay type in all cases: cell-based
Conditions in all cases: Human rhinovirus sp.
[1] = system: HRV serotype 54
Procedure: (§1) For sensitivity testing to pleconaril, the appropriate cells were seeded into 96 well plates at a concentration of 4×10^4/well. After an overnight incubation at 37° C., the medium was removed and the cells were infected with 150 μL of a dilution of virus previously titrated to give ≧85% lysis of the monolayer after 3 days of incubation. The plates were incubated for 1 hour at the appropriate temperature and then overlaid with 50 μL of medium containing serial 2-fold dilutions of pleconaril in 2% DMSO. The final DMSO concentration in the assay was always 0.5%. No virus and no pleconaril controls were included on each plate. All drug concentrations were run in quadruplicate. The plates were then incubated for 3 days at the appropriate temperature followed by processing as described above.

[2] = system: HRV serotype 90
Procedure: as §1

[3] = system: HRV serotype 43
Procedure: as §1

[4] = system: HRV serotype 2
Procedure: as §1

[5] = system: HRV serotype 87
Procedure: as §1

[6] = system: HRV serotype 81
Procedure: as §1

[7] = system: HRV serotype 61
Procedure: as §1

[8] = system: HRV serotype 1A
Procedure: as §1

[9] = system: HRV serotype 83
Procedure: as §1

[10] = system: HRV serotype 6
Procedure: as §1

[11] = system: HRV serotype 45
Procedure: as §1

[12] = system: HRV serotype 69
Procedure: as §1

[13] = system: HRV serotype 10
Procedure: as §1

[14] = system: HRV serotype 67
Procedure: as §1

[15] = system: HRV serotype 12
Procedure: as §1

[16] = system: HRV serotype 76
Procedure: as §1

[17] = system: HRV serotype 15
Procedure: as §1

[18] = system: HRV serotype 62
Procedure: as §1

[19] = system: HRV serotype 44
Procedure: as §1

[20] = system: HRV serotype 65
Procedure: as §1

[21] = system: HRV serotype 70
Procedure: as §1

[22] = system: HRV serotype 64
Procedure: as §1

[23] = system: HRV serotype 58
Procedure: as §1

[24] = system: HRV serotype 85
Procedure: as §1

[25] = system: HRV serotype 49
Procedure: as §1

[26] = system: HRV serotype 53
Procedure: as §1

[27] = system: HRV serotype 32
Procedure: as §1

[28] = system: HRV serotype 33
Procedure: as §1

[29] = system: HRV serotype 9
Procedure: as §1

[30] = system: HRV serotype 20
Procedure: as §1

[31] = system: HRV serotype 93
Procedure: as §1

[32] = system: HRV serotype 27
Procedure: as §1

[33] = system: HRV serotype 66
Procedure: as §1

[34] = system: HRV serotype 46
Procedure: as §1

[35] = system: HRV serotype 1B
Procedure: as §1

[36] = system: HRV serotype 41
Procedure: as §1

[37] = system: HRV serotype 57
Procedure: as §1

[38] = system: HRV serotype 91
Procedure: as §1

[39] = system: HRV serotype 47
Procedure: as §1

[40] = system: HRV serotype 40
Procedure: as §1

[41] = system: HRV serotype 97
Procedure: as §1

[42] = system: HRV serotype 35
Procedure: as §1

[43] = system: HRV serotype 80
Procedure: as §1

[44] = system: HRV serotype 19
Procedure: as §1

[45] = system: HRV serotype 11
Procedure: as §1

## Cc1cc(CCCOc2c(C)cc(-c3noc(C(F)(F)F)n3)cc2C)on1 [pleconaril, 3-[3,5-dimethyl-4-[3-(3-methyl-5-isoxazolyl)propoxy]phenyl]-5-(trifluoromethyl)-1,2,4-oxadiazole]
[1]
  IC50: 460 ± 110 nM
[2]
  IC50: 190 ± 60 nM
[3]
  IC50: 230 ± 110 nM
[4]; HRV2, Table 2, mean of at least two independent determinations
  IC50: 30 ± 30 nM
[4]; serotype 2
  IC50: 30 ± 30 nM
[5]
  IC50: > 12500 nM
[6]
  IC50: 300 ± 70 nM
[7]
  IC50: 210 ± 80 nM
[8]; HRV1A, Table 2, mean of at least two independent determinations
  IC50: 430 ± 170 nM
[8]; serotype 1A
  IC50: 430 ± 170 nM
[9]
  IC50: 20 ± 10 nM
[10]
  IC50: 60 ± 20 nM
[11]
  IC50: 4300 ± 1830 nM
[12]
  IC50: 6770 ± 3140 nM
[13]
  IC50: 130 ± 50 nM
[14]
  IC50: 250 ± 110 nM
[15]
  IC50: 390 ± 120 nM
[16]
  IC50: 240 ± 290 nM
[17]
  IC50: 590 ± 290 nM
[18]
  IC50: 160 ± 60 nM
[19]
  IC50: 110 ± 70 nM
[20]
  IC50: 330 ± 100 nM
[21]
  IC50: 300 ± 190 nM
[22]
  IC50: 320 ± 240 nM
[23]
  IC50: 40 ± 30 nM
[24]
  IC50: 50 ± 20 nM
[25]
  IC50: 170 ± 60 nM
[26]
  IC50: 280 ± 60 nM
[27]
  IC50: 330 ± 130 nM
[28]
  IC50: 160 ± 30 nM
[29]
  IC50: 220 ± 80 nM
[30]
  IC50: 60 nM
[31]
  IC50: > 12500 nM
[32]
  IC50: 5900 ± 1900 nM
[33]
  IC50: 110 ± 70 nM
[34]
  IC50: 160 ± 50 nM
[35]
  IC50: 160 ± 30 nM
[36]
  IC50: 1750 ± 1490 nM
[37]
  IC50: 170 ± 50 nM
[38]
  IC50: 730 ± 390 nM
[39]
  IC50: 10 nM
[40]
  IC50: 70 ± 30 nM
[41]
  IC50: > 12500 nM
[42]
  IC50: 40 ± 10 nM
[43]
  IC50: 170 ± 30 nM
[44]
  IC50: 200 ± 10 nM
[45]
  IC50: 150 ± 40 nM
